O.O=C1NC(=O)C(=O)C(=O)N1
solubility (mole fraction)
Conditions | 293.15 K | 298.15 K | 303.15 K | 308.15 K | 313.15 K | 318.15 K | 323.15 K
in THF | 0.046 | 0.0549 | 0.0638 | 0.0739 | 0.084 | 0.0954 | 0.107
in acetone | 0.0128 | 0.0132 | 0.0136 | 0.014 | 0.0143 | 0.0146 | 0.015
in ethanol | 0.0856 | 0.0962 | 0.107 | 0.119 | 0.131 | 0.143 | 0.155
in ethylene glycol | 0.0113 | 0.0143 | 0.0172 | 0.0206 | 0.024 | 0.0283 | 0.0327
in methanol | 0.105 | 0.117 | 0.129 | 0.142 | 0.155 | 0.168 | 0.181
in water | 0.0377 | 0.0403 | 0.0429 | 0.0456 | 0.0482 | 0.051 | 0.0539
